Measured values as given in US8680290B2, “Isoxazoline derivatives and their use as herbicides” (Syngenta Limited, priority 2004, dated 2014).

Tests used:
[1] = system: Monocotyledonous and dicotyledonous test plants; experiment: Example B1 herbicidal action, application pre-emergence (Table B1b); format: in vivo; conditions: 250 g/ha, evaluated after 4 weeks
Method in brief: (§1)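 Compounds sprayed as aqueous solution from acetone/Emulsogen EL/NMP/dipropylene glycol monomethyl ether/X-77 formulation onto soil right after sowing (pre-emergence) or onto 8–9-day plants (post-emergence); greenhouse-grown. Damage scored 0 (none) to 10 (total) after 4 weeks pre- or 3 weeks post-emergence.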

[2] = system: Monocotyledonous and dicotyledonous test plants; experiment: Example B2 herbicidal action, application pre-emergence, 96-cell seed trays (Table B2b); format: in vivo; conditions: 1000 g/ha
Description: Monocotyledonous and dicotyledonous test plants were sown in sterilised standard soil in seed trays each having 96 cells. After one day (pre-emergence) or after 8 to 9 days cultivation (post-emergence) under controlled conditions in a climatic chamber (cultivation at 17/23° C.; 13 hours light; 50-60% humidity; after application at 19/24° C.), the plants were treated with an aqueous spray solution of 1000 mg/l of the active ingredient used (rate of application: […]; incl. 10% DMSO as solvent). The plants were grown on in the climatic chamber until the test was evaluated (10 total damage to plant, 0=no damage to plant) after 9 or 13 days.

[3] = system: Monocotyledonous and dicotyledonous test plants; experiment: Example B1 herbicidal action, application post-emergence (Table B1a); format: in vivo; conditions: 250 g/ha, evaluated after 3 weeks, scale 0-10
Method in brief: as §1

melting point | SMILES | herbicidal action (damage rating 0-10), Amaranthus [1] | herbicidal action (damage rating 0-10), Digitaria [1] | herbicidal action (damage rating 0-10), Panicum [1] | herbicidal action (damage rating 0-10), Setaria [1] | herbicidal action (damage rating 0-10), Sida [1] | herbicidal action (damage rating 0-10), Agrostis [2] | herbicidal action (damage rating 0-10), Digitaria [2] | herbicidal action (damage rating 0-10), Poa [2] | herbicidal action (damage rating 0-10), Setaria [2] | herbicidal damage rating, Digitaria [3] | herbicidal damage rating, Panicum [3] | herbicidal damage rating, Setaria [3] | herbicidal damage rating, Abutilon [3] | herbicidal damage rating, Amaranthus [3] | herbicidal damage rating, Sida [3]
– | CC1(C)CC([S+]([O-])C(Cl)c2c(F)cccc2F)=NO1 (mixture of isomers) [1.24] | 8 | 8 | 10 | 7 | 4 | 10 | 10 | 10 | 9 | 6 | 6 | 6 | – | – | –
– | CC1(C)CC(S(=O)(=O)C(F)(F)c2c(F)cccc2F)=NO1 [1.20] | 10 | 10 | 10 | 10 | 9 | 10 | 10 | 10 | 10 | 6 | 0 | 6 | 7 | 3 | 5
– | Cc1cccc(C(CC=C(F)F)S(=O)(=O)C2=NOC(C)(C)C2)c1 (stereo not shown) [1.29] | 2 | 3 | 7 | 7 | 0 | 10 | 9 | 8 | 4 | – | – | – | – | – | –
– | CC1(C)CC(S(=O)(=O)C(C)(Br)c2c(F)cccc2F)=NO1 (stereo not shown) [1.37] | 0 | 9 | 9 | 9 | 5 | 10 | 9 | 10 | 9 | – | – | – | – | – | –
– | CC1(C)CC(S(=O)(=O)C(c2c(F)cccc2F)S(=O)(=O)Cc2ccccc2)=NO1 (stereo not shown) [1.39] | 3 | 7 | 7 | 3 | 0 | 10 | 5 | 10 | 3 | – | – | – | – | – | –
– | CC1(C)CC(S(=O)(=O)C2(c3c(F)cccc3F)CC2)=NO1 [Compound No. 1.01, 3-[1-(2,6-difluoro-phenyl)-cyclopropanesulfonyl]-5,5-dimethyl-4,5-dihydroisoxazole] | 2 | 7 | 8 | 8 | 0 | 10 | 9 | 10 | 9 | – | – | – | – | – | –
– | C#CCC(c1c(F)cccc1F)S(=O)(=O)C1=NOC(C)(C)C1 (stereo not shown) [Compound No. 1.02] | – | – | 6 | 3 | 0 | 8 | 9 | 5 | 9 | 6 | 10 | 7 | 0 | 9 | 5
95 °C | CC1(C)CC(S(=O)(=O)C(Cc2ccc(F)cc2)c2c(F)cccc2F)=NO1 (stereo not shown) [Compound No. 1.05, 3-[1-(2,6-difluoro-phenyl)-2-(4-fluoro-phenyl)-ethanesulfonyl]-5,5-dimethyl-4,5-dihydroisoxazole] | – | – | – | – | – | – | – | – | – | – | – | – | – | – | –
– | COC(=O)C(Cl)(c1c(F)cccc1F)S(=O)(=O)C1=NOC(C)(C)C1 (stereo not shown) [Compound No. 1.14, chloro-(2,6-difluorophenyl)-(5,5-dimethyl-4,5-dihydroisoxazole-3-sulfonyl)-acetic acid methyl ester] | 8 | 9 | 9 | 9 | 6 | 10 | 9 | 10 | 10 | 3 | 0 | 3 | 4 | – | 3
113 °C | CC1(C)CC(S(=O)(=O)C(Cl)(CC=C(F)F)c2c(F)cccc2F)=NO1 (stereo not shown) [Compound No. 1.17, 3-[1-chloro-1-(2,6-difluoro-phenyl)-4,4-difluoro-but-3-ene-1-sulfonyl]-5,5-dimethyl-4,5-dihydroisoxazole] | – | – | – | – | – | – | – | – | – | – | – | – | – | – | –
150 °C | CC1(C)CC(S(=O)(=O)C(C(=O)NC2CC2)c2c(F)cccc2F)=NO1 (stereo not shown) [Compound No. 1.35, N-cyclopropyl-2-(2,6-difluoro-phenyl)-2-(5,5-dimethyl-4,5-dihydroisoxazole-3-sulfonyl)-acetamide] | – | – | – | – | – | – | – | – | – | – | – | – | – | – | –
117 °C | C=CC1CC1(c1c(F)cccc1F)S(=O)(=O)C1=NOC(C)(C)C1 (stereo not shown) [Compound No. 1.46, 3-[1-(2,6-difluoro-phenyl)-2-vinylcylopropane-sulfonyl]-5,5-dimethyl-4,5-dihydroisoxazole] | 3 | 6 | 5 | 3 | 0 | – | – | – | – | – | – | – | – | – | –
102 °C | COCC(c1c(F)cccc1F)S(=O)(=O)C1=NOC(C)(C)C1 (stereo not shown) [Compound No. 1.51, 3-[1-(2,6-difluoro-phenyl)-2-methoxy-ethanesulfonyl]-5,5-dimethyl-4,5-dihydroisoxazole] | 8 | 9 | 9 | 8 | 0 | – | – | – | – | – | – | – | – | – | –
91 to 93 °C | CC1(C)CC(S(=O)(=O)C(C)(F)c2ccccc2)=NO1 (stereo not shown) [Compound No. 1.138, 3-(1-fluoro-1-phenyl-ethanesulfonyl)-5,5-dimethyl-4,5-dihydroisoxazole] | – | – | – | – | – | – | – | – | – | – | – | – | – | – | –
105 to 107 °C | Cn1nc(C(F)(F)F)c(C(F)S(=O)(=O)C2=NOC(C)(C)C2)c1OC1COC1 (stereo not shown) [Compound No. 2.27, 3-{fluoro-[1-methyl-5-(oxetan-3-yloxy)-3-trifluoromethyl-1H-pyrazol-4-yl]-methanesulfonyl}-5,5-dimethyl-4,5-dihydroisoxazole] | – | – | – | – | – | – | – | – | – | – | – | – | – | – | –
72 °C | Cc1noc(C2CC2)c1C(Cl)(Cl)S(=O)(=O)C1=NOC(C)(C)C1 [Compound No. 3.06, 5-cyclopropyl-4-[dichloro-(5,5-dimethyl-4,5-dihydroisoxazole-3-sulfonyl)methyl]-3-methyl-isoxazole] | – | – | – | – | – | – | – | – | – | – | – | – | – | – | –
117 to 118 °C | Cn1cc(C(F)(F)F)c(C(F)S(=O)(=O)C2=NOC(C)(C)C2)n1 (stereo not shown) [Compound No. 4.04, 3-[fluoro-(1-methyl-4-trifluoromethyl-1H-pyrazol-3-yl)-methanesulfonyl]-5,5-dimethyl-4,5-dihydroisoxazole] | – | – | – | – | – | – | – | – | – | – | – | – | – | – | –
101 to 103 °C | Cn1cc(C(F)(F)F)c(C(F)(F)S(=O)(=O)C2=NOC(C)(C)C2)n1 [Compound No. 4.05, 3-[difluoro-(1-methyl-4-trifluoromethyl-1H-pyrazol-3-yl)-methanesulfonyl]-5,5-dimethyl-4,5-dihydro-isoxazole] | – | – | – | – | – | – | – | – | – | – | – | – | – | – | –
118 °C | COc1cc(C(Cl)(Cl)S(=O)(=O)C2=NOC(C)(C)C2)on1 [Compound No. 5.02, 5-[dichloro-(5,5-dimethyl-4,5-dihydroisoxazole-3-sulfonyl)-methyl]-3-methoxy-isoxazole] | – | – | – | – | – | – | – | – | – | – | – | – | – | – | –
70 to 75 °C | Cc1c(Br)noc1C(F)(F)S(=O)(=O)C1=NOC(C)(C)C1 [Compound No. 5.06, 3-bromo-5-[(5,5-dimethyl-4,5-dihydroisoxazole-3-sulfonyl)-difluoro-methyl]-4-methyl-isoxazole] | – | – | – | – | – | – | – | – | – | – | – | – | – | – | –
